# From PubChem BioAssay AID2060607 (Molecular Pharmacology Branch, DTP, NCI, 2025)
# Test system: 876862-298-R-J1-PDC complex spheroids, viability % test/control
# Assay: Anticancer human tumor 876862-298-R-J1-PDC patient-derived endometrial carcinoma cell line growth inhibition [CLK]
# Details: for IC50: curve of first compound; for viability, T/C: stronger effect = lower value
# Description: A high-throughput screen of multi-cell type tumor spheroids was designed to identify active combinations of […] and targeted small molecules. Complex spheroids include a stromal component modeled by human endothelial cells (HUVEC) and fibroblasts modeled by human mesenchymal stem cells (MSCs). The concentration ranges selected for each drug and investigational agent were based upon clinically achievable concentrations if the clinical Cmax of the agent was known.
# Compounds. The drugs and investigational agents: cirtuvivint (SM08502; NSC835563), CC-671 (NSC850746), vemurafenib (NSC761431), tapotoclax (NSC804041), sotorasib (NSC818433), adagrasib (NSC831453), MRTX-1133 (NSC836407), BAY2416964 (NSC825713), copanlisib (NSC816437), inavolisib (NSC800729), abemaciclib (NSC768073), osimertinib (NSC779217), entinostat (NSC756642), eltanexor (KPT-8602, NSC794443), venetoclax (NSC766270), ceralasertib (NSC777638), bortezomib (NSC756655), olaparib (NSC753686), talazoparib (NSC767125), alisertib (NSC759677), peposertib (NSC802822), gemcitabine (NSC613327), 5-fluorouracil (NSC19893), SN-38 (NSC673596), oxaliplatin (NSC266046), paclitaxel (NSC125973), and doxorubicin (NSC123127), were obtained from the National Cancer Institute (NCI) Developmental Therapeutics Program Chemical Repository. The FDA-approved anticancer drug set is available from the Developmental Therapeutics Program at https://dtp.cancer.gov/organization/dscb/obtaining/available plates.htm. […] The stock solutions were prepared in dimethyl sulfoxide (DMSO, Sigma-Aldrich, St. Louis, MO, cat. D2650), except for the platinum complexes which were prepared in saline (Quality Biological, Gaithersburg, MD, cat. 114-055-101), at 800-fold the tested concentration and stored at -70 degrees C prior to their use. All drugs and investigational agents were tested over a range starting from a high concentration at or near the clinical Cmax and decreasing in half-log increments. If the clinical Cmax for an agent had not been determined, the highest concentration tested was 10 microM.
# Cell Culture. All cells were maintained in an incubator at 37 degrees C and 5% CO2 with 95% humidity. The PDC lines were cultured according to standard operating procedures established by the NCI PDMR. Briefly, all PDCs were thawed and cultured in Matrigel-coated flasks prepared with a working solution of 1X Ham's F-12 nutrient mix, without supplementation (Invitrogen, Waltham, MA, cat. 11765054), 100 U/mL penicillin-streptomycin (Invitrogen, cat. 15140122), and 2.5% Matrigel (Corning Inc., Corning, NY, cat. 354248) for the first three passages. The 947758-054-R-J2-PDC line was cultured in 6B/Colon 1A media, which includes advanced DMEM/F-12 (Thermo Fisher Scientific, cat. 12634028), 10 mM HEPES (Thermo Fisher Scientific, cat. 15630080), 1X GlutaMAX supplement (Thermo Fisher Scientific, cat. 35050061), 0.1 mg/mL primocin (InvivoGen, cat. ant-pm-2), 10% defined fetal bovine serum, heat inactivated (HyClone Laboratories Inc., cat. SH30070.03HI), 1.25 mM N-Acetyl-L-cysteine (Sigma-Aldrich, cat. A9165), 10 mM nicotinamide (Sigma-Aldrich, cat. N0636), 1X B-27 supplement (Thermo Fisher Scientific, cat. 17504044), 1X N-2 supplement (Thermo Fisher Scientific, cat. 17502048), and 10 microM Y-27632 dihydrochloride (Tocris Bioscience, cat. 1254). The 876862-298-R-J1-PDC was cultured in 6E media, which includes all 6B/Colon 1A media components plus 50% L-WRN conditioned media (ATCC, cat. CRL-3276), 50 ng/mL recombinant human EGF recombinant protein (hEGF; Thermo Fisher Scientific, cat. PHG0311), 10 ng/mL recombinant human fibroblast growth factor 10 (hGFG-10; PeproTech, cat. 100-26), 1 ng/mL recombinant human fibroblast growth factor 2 (hFGF-2; PeproTech, cat. 100-18B), and 1 µM prostaglandin E2 (PGE2; Tocris, cat. 2296). The 227483-062-R1-J1-PDC line was cultured in Panc media, containing all 6E components except hFGF-2, with the addition of 500 nM SB-431542 (Selleckchem, cat. S1067) and 10 nM gastrin (Tocris, cat. 3006). […]
# 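Note: spheroids exposed to drugs for 7 days before readout.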
# 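Throughout, for viability, T/C: 100% = DMSO vehicle control wells.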
structure (smiles),measurement,setting,value
C=CC(=O)Nc1cc(Nc2nccc(-c3cn(C)c4ccccc34)n2)c(OC)cc1N(C)CCN(C)C + CNC(=O)c1ccc(Nc2nc(OC3CCCC3)c3c(-c4ccc5nc(C)oc5c4)c[nH]c3n2)c(OC)c1,IC50,second compound 0.0316 µM,170 nM
same,IC50,second compound 0.1 µM,< 0.949 nM
same,IC50,second compound 0.316 µM,< 0.949 nM
same,IC50,second compound 1 µM,< 0.949 nM
same,IC50,second compound 3.16 µM,< 0.949 nM
same,IC50,second compound 10 µM,< 0.949 nM
same,"viability, T/C","second compound 0.0316 µM, first compound 0.000949 µM",74.5%
same,"viability, T/C","second compound 0.0316 µM, first compound 0.003 µM",79.6%
same,"viability, T/C","second compound 0.0316 µM, first compound 0.00949 µM",69.1%
same,"viability, T/C","second compound 0.0316 µM, first compound 0.03 µM",64%
same,"viability, T/C","second compound 0.0316 µM, first compound 0.0949 µM",53.5%
same,"viability, T/C","second compound 0.0316 µM, first compound 0.3 µM",46.6%
same,"viability, T/C","second compound 0.1 µM, first compound 0.000949 µM",49.2%
same,"viability, T/C","second compound 0.1 µM, first compound 0.003 µM",46%
same,"viability, T/C","second compound 0.1 µM, first compound 0.00949 µM",44.2%
same,"viability, T/C","second compound 0.1 µM, first compound 0.03 µM",44.1%
same,"viability, T/C","second compound 0.1 µM, first compound 0.0949 µM",41.7%
same,"viability, T/C","second compound 0.1 µM, first compound 0.3 µM",31.3%
same,"viability, T/C","second compound 0.316 µM, first compound 0.000949 µM",46.4%
same,"viability, T/C","second compound 0.316 µM, first compound 0.003 µM",41.3%
same,"viability, T/C","second compound 0.316 µM, first compound 0.00949 µM",42.3%
same,"viability, T/C","second compound 0.316 µM, first compound 0.03 µM",41.1%
same,"viability, T/C","second compound 0.316 µM, first compound 0.0949 µM",34%
same,"viability, T/C","second compound 0.316 µM, first compound 0.3 µM",27.8%
same,"viability, T/C","second compound 1 µM, first compound 0.000949 µM",36.5%
same,"viability, T/C","second compound 1 µM, first compound 0.003 µM",30.8%
same,"viability, T/C","second compound 1 µM, first compound 0.00949 µM",32.7%
same,"viability, T/C","second compound 1 µM, first compound 0.03 µM",26.9%
same,"viability, T/C","second compound 1 µM, first compound 0.0949 µM",30.2%
same,"viability, T/C","second compound 1 µM, first compound 0.3 µM",27.4%
same,"viability, T/C","second compound 3.16 µM, first compound 0.000949 µM",24.1%
same,"viability, T/C","second compound 3.16 µM, first compound 0.003 µM",27.6%
same,"viability, T/C","second compound 3.16 µM, first compound 0.00949 µM",19.2%
same,"viability, T/C","second compound 3.16 µM, first compound 0.03 µM",20.9%
same,"viability, T/C","second compound 3.16 µM, first compound 0.0949 µM",20%
same,"viability, T/C","second compound 3.16 µM, first compound 0.3 µM",19%
same,"viability, T/C","second compound 10 µM, first compound 0.000949 µM",23.1%
same,"viability, T/C","second compound 10 µM, first compound 0.003 µM",23.4%
same,"viability, T/C","second compound 10 µM, first compound 0.00949 µM",21.7%
same,"viability, T/C","second compound 10 µM, first compound 0.03 µM",19.7%
same,"viability, T/C","second compound 10 µM, first compound 0.0949 µM",17.9%
same,"viability, T/C","second compound 10 µM, first compound 0.3 µM",17.4%
